Our source for the IC50 values is US10550105B2 (Ribon Therapeutics Inc., priority 2018, dated 2020).

A value given as a limit tells only on which side of the number the result lay.

Sequence of PARP7 (Q7Z3E1 whole entry): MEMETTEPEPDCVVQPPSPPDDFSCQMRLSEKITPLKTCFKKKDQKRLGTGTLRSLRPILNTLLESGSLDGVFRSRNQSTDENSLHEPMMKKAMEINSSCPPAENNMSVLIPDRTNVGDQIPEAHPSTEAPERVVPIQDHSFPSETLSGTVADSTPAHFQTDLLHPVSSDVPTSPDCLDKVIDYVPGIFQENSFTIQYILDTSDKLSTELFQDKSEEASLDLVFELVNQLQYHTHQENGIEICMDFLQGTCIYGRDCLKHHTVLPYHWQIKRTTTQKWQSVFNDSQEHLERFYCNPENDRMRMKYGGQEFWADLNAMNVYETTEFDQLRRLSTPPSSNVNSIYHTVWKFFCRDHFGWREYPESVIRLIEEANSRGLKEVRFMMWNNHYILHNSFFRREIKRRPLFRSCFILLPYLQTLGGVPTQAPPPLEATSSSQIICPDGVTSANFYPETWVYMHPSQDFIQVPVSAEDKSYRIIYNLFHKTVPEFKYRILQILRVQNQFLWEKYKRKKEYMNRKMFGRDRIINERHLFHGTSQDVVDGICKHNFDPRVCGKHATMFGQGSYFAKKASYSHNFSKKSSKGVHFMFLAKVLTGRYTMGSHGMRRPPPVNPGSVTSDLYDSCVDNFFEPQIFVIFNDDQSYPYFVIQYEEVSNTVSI

This test addresses PARP7 (Homo sapiens (Human), UniProt Q7Z3E1). The test is described as follows: Enzymatic assay for inhibition of PARP7: TR-FRET displacement of biotinylated Probe A from the TIPARP active site. The following applies: Table A-1. Type of test: binding. In outline:
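TR-FRET, ex 320 nm / em 615 and 665 nm. Signal ratio reflects complex formation.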
The compound `N#Cc1c(N2Cc3cccc(OCCO)c3C2)cn[nH]c1=O` [Example 176, 5-(4-(2-Hydroxyethoxy)isoindolin-2-yl)-3-oxo-2,3-dihydropyridazine-4-carbonitrile] gave an IC50 of no less than 1000 nM.

`O=c1[nH]ncc(N2Cc3ccc(OCCO)cc3C2)c1C(F)(F)F` [Example 177, 5-(5-(2-Hydroxyethoxy)isoindolin-2-yl)-4-(trifluoromethyl)pyridazin-3(2H)-one] registered a 50% inhibitory concentration (IC50) of less than 100 nM.

`CN(C)c1cccc2c1CN(c1cn[nH]c(=O)c1C(F)(F)F)C2` [Example 178, 5-(4-(Dimethylamino)isoindolin-2-yl)-4-(trifluoromethyl)pyridazin-3(2H)-one] registered a concentration for half-maximal inhibition (IC50) of less than 100 nM.

`CC(=O)Nc1cccc2c1CN(c1cn[nH]c(=O)c1C(F)(F)F)C2` [Example 179, N-(2-(6-Oxo-5-(trifluoromethyl)-1,6-dihydropyridazin-4-yl)isoindolin-4-yl)acetamide] had an IC50 of 100 to 1000 nM.

Turning to `O=c1[nH]ncc(N2Cc3cccc(F)c3C2)c1C(F)(F)F` [Example 180, 5-(4-Fluoroisoindolin-2-yl)-4-(trifluoromethyl)pyridazin-3(2H)-one], the IC50 was less than 100 nM.

On to `O=c1[nH]ncc(N2Cc3cccc(OCCO)c3C2)c1C(F)(F)F` [Example 181, 5-(4-(2-Hydroxyethoxy)isoindolin-2-yl)-4-(trifluoromethyl)pyridazin-3(2H)-one], for which the IC50 is less than 100 nM.

Compound `N#Cc1c(N2Cc3cccc(OC4CCNCC4)c3C2)cn[nH]c1=O` [Example 182, 3-Oxo-5-(4-(piperidin-4-yloxy)isoindolin-2-yl)-2,3-dihydropyridazine-4-carbonitrile formic acid] came in with an IC50 of no less than 1000 nM.

As for `O=c1[nH]ncc(N2Cc3cccc(OC4CCNCC4)c3C2)c1C1CC1` [Example 183, 4-Cyclopropyl-5-(4-(piperidin-4-yloxy)isoindolin-2-yl)pyridazin-3(2H)-one formic acid], the IC50 was no less than 1000 nM.

Take `COc1c(N2Cc3cccc(OCCO)c3C2)cn[nH]c1=O` [Example 184, 5-(4-(2-Hydroxyethoxy)isoindolin-2-yl)-4-methoxypyridazin-3(2H)-one]: the IC50 is no less than 1000 nM.

The compound `CCc1c(N2Cc3cccc(OCCO)c3C2)cn[nH]c1=O` [Example 185, 4-Ethyl-5-(4-(2-hydroxyethoxy)isoindolin-2-yl)pyridazin-3(2H)-one] came in with an IC50 of no less than 1000 nM.

`O=c1[nH]ncc(N2Cc3cccc(OCCO)c3C2)c1C1CC1` [Example 186, 4-Cyclopropyl-5-(4-(2-hydroxyethoxy)isoindolin-2-yl)pyridazin-3(2H)-one] displayed an IC50 of no less than 1000 nM.

Take `Cc1c(N2Cc3ccc(OC4CCNCC4)cc3C2)cn[nH]c1=O` [Example 187, 4-Methyl-5-(5-(piperidin-4-yloxy)isoindolin-2-yl)pyridazin-3(2H)-one]: the IC50 was no less than 1000 nM.

For the compound `Cc1c(N2Cc3ccc(OCCO)cc3C2)cn[nH]c1=O` [Example 188, 5-(5-(2-Hydroxyethoxy)isoindolin-2-yl)-4-methylpyridazin-3(2H)-one], the IC50 was in the range of 100 to 1000 nM.

For `CSc1c(N2Cc3ccccc3C2)cn[nH]c1=O` [Example 189, 5-(Isoindolin-2-yl)-4-(methylthio)pyridazin-3(2H)-one], the half-inhibitory concentration (IC50) was 100 to 1000 nM.

Take `O=c1[nH]ncc(N2Cc3ccccc3C2CO)c1Cl` (centres unmarked) [Example 191, 4-Chloro-5-(1-(hydroxymethyl)isoindolin-2-yl)pyridazin-3(2H)-one]: the IC50 was no less than 1000 nM.

Turning to `CCOc1cccc2c1CN(c1cn[nH]c(=O)c1C(F)(F)F)C2` [Example 192, 5-(4-Ethoxyisoindolin-2-yl)-4-(trifluoromethyl)pyridazin-3(2H)-one], the half-maximal inhibitory concentration (IC50) was less than 100 nM.

The compound `CC(C)Oc1cccc2c1CN(c1cn[nH]c(=O)c1C(F)(F)F)C2` [Example 193, 5-(4-Isopropoxyisoindolin-2-yl)-4-(trifluoromethyl)pyridazin-3(2H)-one] came in with a concentration for half-maximal inhibition (IC50) of less than 100 nM.

Regarding `O=c1[nH]ncc(N2Cc3cccc(OC4CCOCC4)c3C2)c1C(F)(F)F` [Example 194, 5-(4-((Tetrahydro-2H-pyran-4-yl)oxy)isoindolin-2-yl)-4-(trifluoromethyl)pyridazin-3(2H)-one], the IC50 is less than 100 nM.

Consider `O=c1[nH]ncc(N2Cc3cccc(Oc4ccncn4)c3C2)c1C(F)(F)F` [Example 195, 5-(4-(Pyrimidin-4-yloxy)isoindolin-2-yl)-4-(trifluoromethyl)pyridazin-3(2H)-one], for which the IC50 was less than 100 nM.

Compound `O=c1[nH]ncc(N2Cc3cccc(OCc4ccncc4)c3C2)c1C(F)(F)F` [Example 196, 5-(4-(Pyridin-4-ylmethoxy)isoindolin-2-yl)-4-(trifluoromethyl)pyridazin-3(2H)-one] had an IC50 of less than 100 nM.

`O=c1[nH]ncc(N2Cc3cccc(OCc4cccnc4)c3C2)c1C(F)(F)F` [Example 197, 5-(4-(Pyridin-3-ylmethoxy)isoindolin-2-yl)-4-(trifluoromethyl)pyridazin-3(2H)-one] returned an IC50 of less than 100 nM.

Take `O=c1[nH]ncc(N2Cc3cccc(OCc4ccccn4)c3C2)c1C(F)(F)F` [Example 198, 5-(4-(Pyridin-2-ylmethoxy)isoindolin-2-yl)-4-(trifluoromethyl)pyridazin-3(2H)-one]: the IC50 is less than 100 nM.

Regarding `O=c1[nH]ncc(N2Cc3cccc(OCC4CCCOC4)c3C2)c1C(F)(F)F` (centres unmarked) [Example 199, 5-(4-((Tetrahydro-2H-pyran-3-yl)methoxy)isoindolin-2-yl)-4-(trifluoromethyl)pyridazin-3(2H)-one], the IC50 was less than 100 nM.

Consider `O=c1[nH]ncc(N2Cc3cccc(OCC4CCOC4)c3C2)c1C(F)(F)F` (centres unmarked) [Example 200, 5-(4-((Tetrahydrofuran-3-yl)methoxy)isoindolin-2-yl)-4-(trifluoromethyl)pyridazin-3(2H)-one], for which the IC50 was less than 100 nM.

The compound `O=c1[nH]ncc(N2Cc3cccc(OCC4CCCO4)c3C2)c1C(F)(F)F` (centres unmarked) [Example 201, 5-(4-((Tetrahydrofuran-2-yl)methoxy)isoindolin-2-yl)-4-(trifluoromethyl)pyridazin-3(2H)-one] showed an IC50 of less than 100 nM.

Consider `O=C1OCCC1Oc1cccc2c1CN(c1cn[nH]c(=O)c1C(F)(F)F)C2` (centres unmarked) [Example 202, 5-(4-((2-Oxotetrahydrofuran-3-yl)oxy)isoindolin-2-yl)-4-(trifluoromethyl)pyridazin-3(2H)-one], for which the IC50 was less than 100 nM.

`O=c1[nH]ncc(N2Cc3cccc(OC4CCOC4)c3C2)c1C(F)(F)F` (centres unmarked) [Example 203, 5-(4-((Tetrahydrofuran-3-yl)oxy)isoindolin-2-yl)-4-(trifluoromethyl)pyridazin-3(2H)-one] yielded an IC50 of less than 100 nM.

In the case of `NC(=O)COc1cccc2c1CN(c1cn[nH]c(=O)c1C(F)(F)F)C2` [Example 204, 2-((2-(6-Oxo-5-(trifluoromethyl)-1,6-dihydropyridazin-4-yl)isoindolin-4-yl)oxy)acetamide], the IC50 is 100 to 1000 nM.

In turn, `Nc1cccc2c1CN(c1cn[nH]c(=O)c1C(F)(F)F)C2` [Example 205, 5-(4-Aminoisoindolin-2-yl)-4-(trifluoromethyl)pyridazin-3(2H)-one] registered an IC50 of less than 100 nM.

`N#Cc1cccc2c1CN(c1cn[nH]c(=O)c1C(F)(F)F)C2` [Example 206, 2-(6-Oxo-5-(trifluoromethyl)-1,6-dihydropyridazin-4-yl)isoindoline-4-carbonitrile]: the IC50 is less than 100 nM.

With `COCC1c2ccccc2CN1c1cn[nH]c(=O)c1Cl` (centres unmarked) [Example 207, 4-Chloro-5-(1-(methoxymethyl)isoindolin-2-yl)pyridazin-3(2H)-one], the concentration for half-maximal inhibition (IC50) was no less than 1000 nM.

As for `CC1c2ccccc2CN1c1cn[nH]c(=O)c1Cl` (centres unmarked) [Example 208, 4-Chloro-5-(1-methylisoindolin-2-yl)pyridazin-3(2H)-one], the IC50 was no less than 1000 nM.

The compound `NCCOc1cccc2c1CN(c1cn[nH]c(=O)c1C(F)(F)F)C2` [Example 209, 5-(4-(2-Aminoethoxy)isoindolin-2-yl)-4-(trifluoromethyl)pyridazin-3(2H)-one] gave a concentration for half-maximal inhibition (IC50) of less than 100 nM.

`CN1CCC(Oc2cccc3c2CN(c2cn[nH]c(=O)c2C(F)(F)F)C3)CC1` [Example 210, 5-(4-((1-Methylpiperidin-4-yl)oxy)isoindolin-2-yl)-4-(trifluoromethyl)pyridazin-3(2H)-one] showed an IC50 of 100 to 1000 nM.

The compound `CC(=O)NCCOc1cccc2c1CN(c1cn[nH]c(=O)c1C(F)(F)F)C2` [Example 211, N-(2-((2-(6-Oxo-5-(trifluoromethyl)-1,6-dihydropyridazin-4-yl)isoindolin-4-yl)oxy)ethyl)acetamide] registered an IC50 of less than 100 nM.

In turn, `CN(C)CCOc1cccc2c1CN(c1cn[nH]c(=O)c1C(F)(F)F)C2` [Example 212, 5-(4-(2-(Dimethylamino)ethoxy)isoindolin-2-yl)-4-(trifluoromethyl)pyridazin-3(2H)-one] yielded an IC50 of 100 to 1000 nM.

In turn, `O=c1[nH]ncc(N2Cc3cccc(OCCN4CCCCC4)c3C2)c1C(F)(F)F` [Example 213, 5-(4-(2-(Piperidin-1-yl)ethoxy)isoindolin-2-yl)-4-(trifluoromethyl)pyridazin-3(2H)-one] gave a 50% inhibitory concentration (IC50) of 100 to 1000 nM.

Compound `O=c1[nH]ncc(N2Cc3cccc(OCCN4CCOCC4)c3C2)c1C(F)(F)F` [Example 214, 5-(4-(2-Morpholinoethoxy)isoindolin-2-yl)-4-(trifluoromethyl)pyridazin-3(2H)-one] returned an IC50 of less than 100 nM.

Consider `CNc1cccc2c1CN(c1cn[nH]c(=O)c1C(F)(F)F)C2` [Example 215, 5-(4-(Methylamino)isoindolin-2-yl)-4-(trifluoromethyl)pyridazin-3(2H)-one], for which the half-inhibitory concentration (IC50) is less than 100 nM.

For the compound `O=c1[nH]ncc(N2Cc3cccc(OCC4CCCCO4)c3C2)c1C(F)(F)F` (centres unmarked) [Example 216, 5-(4-((Tetrahydro-2H-pyran-2-yl)methoxy)isoindolin-2-yl)-4-(trifluoromethyl)pyridazin-3(2H)-one], the IC50 is less than 100 nM.

`CNCCOc1cccc2c1CN(c1cn[nH]c(=O)c1C(F)(F)F)C2` [Example 217, 5-(4-(2-(Methylamino)ethoxy)isoindolin-2-yl)-4-(trifluoromethyl)pyridazin-3(2H)-one] displayed an IC50 of 100 to 1000 nM.
